Laboratory results taken from ChEMBL document CHEMBL5223133, “A review of MMP-2 structures and binding mode analysis of its inhibitors to strategize structure-based drug design” (Bioorg Med Chem, 2022).
One block for each compound: values may come before it. Activity calls are given as the source filed them. The calls are words filed in the database; no cut-off is given here.

Tests used:
[1] = biological target: T1, 72 kDa type IV collagenase (Homo sapiens, UniProt P08253); test: Inhibition of MMP2 (unknown origin)
Target sequence in this assay (P08253 whole entry): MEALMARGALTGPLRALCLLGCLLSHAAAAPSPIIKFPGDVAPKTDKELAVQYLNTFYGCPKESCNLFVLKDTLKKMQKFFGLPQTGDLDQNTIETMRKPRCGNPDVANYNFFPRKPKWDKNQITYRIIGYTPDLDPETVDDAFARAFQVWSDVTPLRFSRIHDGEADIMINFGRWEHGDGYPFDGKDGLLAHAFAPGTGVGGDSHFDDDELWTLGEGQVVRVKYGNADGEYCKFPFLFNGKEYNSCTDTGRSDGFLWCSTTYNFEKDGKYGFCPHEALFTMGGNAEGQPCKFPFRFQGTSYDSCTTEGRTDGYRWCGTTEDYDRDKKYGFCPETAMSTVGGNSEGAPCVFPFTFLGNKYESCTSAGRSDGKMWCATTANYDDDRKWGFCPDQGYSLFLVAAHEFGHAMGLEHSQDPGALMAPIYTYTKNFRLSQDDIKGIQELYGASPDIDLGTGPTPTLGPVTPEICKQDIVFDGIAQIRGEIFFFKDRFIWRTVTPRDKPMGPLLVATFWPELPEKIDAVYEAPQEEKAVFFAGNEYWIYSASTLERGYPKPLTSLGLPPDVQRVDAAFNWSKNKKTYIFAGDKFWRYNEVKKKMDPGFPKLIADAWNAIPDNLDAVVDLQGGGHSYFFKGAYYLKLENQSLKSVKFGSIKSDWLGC

[2] = biological target: T1, 72 kDa type IV collagenase; test: Inhibition of MMP2 (unknown origin) gelatinase activity at 5 to 20 uM incubated for 24 hrs by modified zymography assay; conditions: dose 5-20 µM
Target sequence in this assay (P08253 110-660 limits assumed): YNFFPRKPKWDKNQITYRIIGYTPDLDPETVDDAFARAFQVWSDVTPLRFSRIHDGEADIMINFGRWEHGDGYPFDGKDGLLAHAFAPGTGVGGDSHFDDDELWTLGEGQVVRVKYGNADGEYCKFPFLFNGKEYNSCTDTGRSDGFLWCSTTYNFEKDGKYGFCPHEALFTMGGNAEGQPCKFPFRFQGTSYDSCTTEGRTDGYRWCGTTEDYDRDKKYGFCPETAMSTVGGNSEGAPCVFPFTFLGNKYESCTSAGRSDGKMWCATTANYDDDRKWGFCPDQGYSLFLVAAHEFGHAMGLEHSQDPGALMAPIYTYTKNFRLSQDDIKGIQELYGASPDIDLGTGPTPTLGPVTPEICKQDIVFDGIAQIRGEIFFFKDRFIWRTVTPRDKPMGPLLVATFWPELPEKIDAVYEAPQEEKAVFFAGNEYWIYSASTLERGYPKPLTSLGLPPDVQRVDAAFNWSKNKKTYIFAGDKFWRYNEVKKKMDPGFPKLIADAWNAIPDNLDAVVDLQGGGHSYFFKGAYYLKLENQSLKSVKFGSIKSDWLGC

[3] = biological target: Matrix metalloproteinase-9 (Homo sapiens) (UniProt P14780); test: Inhibition of MMP9 (unknown origin) gelatinase activity at 5 to 20 uM incubated for 24 hrs by modified zymography assay; conditions: dose 5-20 µM
[4] = biological target: Matrix metalloproteinase-9 (Homo sapiens) (UniProt P14780); test: Inhibition of MMP9 (unknown origin) gelatinase activity at >= 7.5 uM incubated for 24 hrs by modified zymography assay
[5] = biological target: T1, 72 kDa type IV collagenase; test: Inhibition of MMP2 (unknown origin) gelatinase activity at >= 7.5 uM incubated for 24 hrs by modified zymography assay
Target sequence in this assay (P08253 110-660 limits assumed): as above

[6] = biological target: T1, 72 kDa type IV collagenase; test: Inhibition of human MMP2
Target sequence in this assay (P08253 whole entry): as the sequence (P08253 whole entry) above

A549 = test: Anticancer activity against human A549 cells assessed as cell survival measured after 48 hrs by MTT assay; format: functional, cell-based; conditions: A549, 48 h

Chain of Matrix metalloproteinase-9 (Homo sapiens) (P14780 whole entry): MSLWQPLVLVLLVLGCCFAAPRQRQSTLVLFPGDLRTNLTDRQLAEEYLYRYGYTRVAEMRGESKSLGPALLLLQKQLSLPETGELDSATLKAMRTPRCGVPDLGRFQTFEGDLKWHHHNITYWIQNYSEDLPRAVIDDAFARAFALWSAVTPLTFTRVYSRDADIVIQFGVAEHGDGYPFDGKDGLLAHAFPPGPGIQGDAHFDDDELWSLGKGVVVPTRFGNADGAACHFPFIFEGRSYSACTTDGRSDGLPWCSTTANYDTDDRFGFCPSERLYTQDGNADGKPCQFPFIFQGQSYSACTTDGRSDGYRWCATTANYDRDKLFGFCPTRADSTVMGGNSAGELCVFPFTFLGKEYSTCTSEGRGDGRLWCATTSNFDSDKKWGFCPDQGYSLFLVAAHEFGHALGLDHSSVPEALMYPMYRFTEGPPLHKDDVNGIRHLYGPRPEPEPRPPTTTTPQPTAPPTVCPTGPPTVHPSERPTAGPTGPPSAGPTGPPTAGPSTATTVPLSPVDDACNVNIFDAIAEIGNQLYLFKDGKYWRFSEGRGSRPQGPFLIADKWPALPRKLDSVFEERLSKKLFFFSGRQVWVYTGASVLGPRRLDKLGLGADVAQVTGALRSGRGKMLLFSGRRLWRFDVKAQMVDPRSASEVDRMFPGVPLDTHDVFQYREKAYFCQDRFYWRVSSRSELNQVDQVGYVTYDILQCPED

SMILES: O=C(NCc1ccco1)Nc1c[nH]c2cccnc2c1=O
- IC50 [1]: 5 µM

SMILES: c1cc2nc(c1)CNCCNCCCNCCNC2
- inhibition [2]: Active
- inhibition [3]: Active
- inhibition [4]: 100%
- inhibition [5]: 100%

SMILES: c1cc2nc(c1)CNCCNCCNCCNC2
- inhibition [2]: Active
- inhibition [3]: Active
- inhibition [4]: 100%
- inhibition [5]: 100%

SMILES: Cc1cc(=O)c(O)c(C(=O)NCc2ccc(-c3ccc(C#N)cc3)cc2)o1
- IC50 [1]: 9.3 µM

SMILES: N#Cc1ccc(Oc2ccc(S(=O)(=O)N3CCc4c([nH]c5ccccc45)C3C(=O)NO)cc2)cc1 (stereo unspecified)
- IC50 [1]: 0.15 µM

SMILES: Cc1cc(=O)c(O)c(C(=O)NCc2ccc(-c3ccccc3)cc2)o1
- IC50 [1]: 0.61 µM

SMILES: O=C(NO)C1CN(C(=O)c2ccccc2)CCCN1C(=O)/C=C/c1ccc(O)c(O)c1 (stereo unspecified)
- IC50 (A549): 8.2 µM

Continued, values first:

- IC50 [1]: 0.036 µM
SMILES: CNC(=O)[C@@H](NC(=O)c1ccc(-c2ccc(OCc3ccn[nH]3)cn2)o1)C1CCCCC1

- IC50 [6]: 0.027 µM
SMILES: CCCCCCCC/C=C\CCCCCCCC(=O)NNC(=O)[C@H](Cc1cc2ccccc2[nH]1)NC(=O)[C@@H](CC(=O)NO)CC(C)C

- IC50 [6]: 2 µM
SMILES: CCCCCCCC/C=C/CCCCCCCC(=O)O [ELAIDIC ACID]
